US7858630B2, “D3 and 5-HT2A receptor modulators” (Hoffmann-La Roche Inc., priority 2008, dated 2010)

Assays:
[1] = molecular target: T1, human serotonin 5-HT2A receptor (Homo sapiens, UniProt P28223); assay: Radioligand binding ([3H]-ketanserin) to membranes of HEK-293 EBNA cells expressing human 5-HT2A receptor; settings: 1.1 nM [3H]-ketanserin, HEK-293 EBNA membranes, 1 h at RT
T1 construct: expressed in transfected cells; host or cells: HEK-293 EBNA cells, transient transfection; membrane preparation
T1 sequence (P28223 whole entry): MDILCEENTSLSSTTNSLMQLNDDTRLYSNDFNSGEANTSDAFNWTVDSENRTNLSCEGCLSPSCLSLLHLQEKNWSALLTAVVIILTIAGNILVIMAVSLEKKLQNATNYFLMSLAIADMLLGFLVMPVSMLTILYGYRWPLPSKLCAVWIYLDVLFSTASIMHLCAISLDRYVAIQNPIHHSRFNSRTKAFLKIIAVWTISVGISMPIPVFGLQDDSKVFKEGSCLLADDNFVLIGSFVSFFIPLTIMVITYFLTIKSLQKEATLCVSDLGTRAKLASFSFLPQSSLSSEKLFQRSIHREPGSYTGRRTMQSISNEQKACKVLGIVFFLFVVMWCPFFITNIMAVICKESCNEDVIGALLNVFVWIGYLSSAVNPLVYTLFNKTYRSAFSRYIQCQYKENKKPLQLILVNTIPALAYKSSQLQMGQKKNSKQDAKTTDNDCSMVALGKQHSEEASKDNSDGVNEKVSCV
Experimental: (§1) The ability of the compounds to bind to the 5-HT2A, D3 and D2 receptors was determined using radioligand binding to cloned receptors selectively expressed in HEK-293 EBNA cells.
(§2) Membrane Preparation for Human D2, Human D3 and Human 5-HT2A Receptors
(§3) HEK-293 EBNA cells were transiently transfected with expression plasmids encoding for the human D2 or D3 dopamine- or for the human 5-HT2A serotonin receptor, respectively. The cells were harvested 48 h post-transfection, washed three times with cold PBS and stored at −80° C. prior to use. The pellet was suspended in cold 50 mM Tris-HCl buffer containing 10 mM EDTA (pH 7.4) and homogenized with a Polytron (Kinematica AG, Basel, Switzerland) for 20-30 sec at 12.000 rpm. After centrifugation at 48.000×g for 30 min at 4° C., the pellet was resuspended in cold 10 mM Tris-HCl buffer containing 0.1 mM EDTA (pH 7.4), homogenized, and centrifuged as above. This pellet was further resuspended in a smaller volume of ice cold 10 mM Tris-HCl buffer containing 0.1 mM EDTA (pH 7.4) and homogenized with a Polytron for 20-30 sec at 12.000 rpm. The protein content of this homogenate was determined with the Bio-Rad (Bradford) Protein Assay (Biorad Laboratories GmbH, München, Germany) according to the instructions of the manufacturer using gamma globulin as the standard. This homogenate was stored at −80° C. in aliquots and thawed immediately prior to use.
(§4) Radioligand Binding Assay Conditions
(§5) Aliquots of membrane preparations were thawed at RT, resupended in assay buffer (D2, D3: 50 mM Tris-HCl, 120 mM NaCl, 5 mM MgCl2, 1 mM EDTA, 5 mM KCl, 1.5 mM CaCl2, pH=7.4; 5-HT2A: 50 mM Tris-HCl, 10 mM MgCl2, 1 mM EGTA, pH=7.4), homogenized with a Polytron for 20-30 sec at 12.000 rpm and adjusted to a final concentration of approximately 7.5 μg protein/well (D2, D3) and 15 μg protein/well (5-HT2A), respectively.
(§6) The binding affinity (Ki) of the compounds was determined using radioligand binding. Membranes were incubated in a total volume of 200 μl with a fixed concentration of radioligand (final concentration approximately 0.7 nM [^3H]-spiperone for D2, 0.5 nM [^3H]-spiperone for D3, and 1.1 nM [^3H]-ketanserin for 5-HT2A) and ten concentrations of test compound in ranging between 10 μM-0.1 nM for 1 h at RT. At the end of the incubation, the reaction mixtures were filtered on to unifilter 96-well white microplates with bonded GF/C filters (Packard BioScience, Zurich, Switzerland; preincubated for 1 h in 0.1% polyethylenimine (PEI) in assay buffer) with a Filtermate 196 harvester (Packard BioScience) and washed 3 times with cold assay buffer. The nonspecific binding was determined with equally composed reaction mixtures in the presence of 10 μM unlabelled spiperone. Per well 45 μl of Microscint 40 (Perkin Elmer, Schwerzenbach, Switzerland) was added, plates for sealed, shaken for 20 min and counted for 3 min on a Topcount Microplate Scintillation Counter (Canberra Packard SA, Zurich, Switzerland) with quenching correction.
(§7) The CPM value for each duplicate of a concentration of competing compound was averaged (y1), then the % specific binding was calculated according to the equation (((y1−non-specific)/(total binding-non-specific))×100). Graphs were plotted with the % specific binding using XLfit, a curve fitting program that iteratively plots the data using Levenburg Marquardt algorithm. The single site competition analysis equation used was y=A+((B−A)/(1+((x/C)^D))), where y is the % specific binding, A is the minimum y, B is the maximum y, C is the IC50, x is the log10 of the concentration of the competing compound and D is the slope of the curve (the Hill Coefficient). From these curves the IC50 (inhibition concentration at which 50% specific binding of the radioligand was displaced) and Hill coefficient were determined. […]

[2] = molecular target: T2, human dopamine D3 receptor (Homo sapiens, UniProt P35462); assay: Radioligand binding ([3H]-spiperone) to membranes of HEK-293 EBNA cells expressing human D3 receptor; settings: human D3, 0.5 nM [3H]-spiperone, HEK-293 EBNA membranes, 1 h at RT
T2 construct: expressed in transfected cells; host or cells: HEK-293 EBNA cells, transient transfection; membrane preparation
T2 sequence (P35462 whole entry): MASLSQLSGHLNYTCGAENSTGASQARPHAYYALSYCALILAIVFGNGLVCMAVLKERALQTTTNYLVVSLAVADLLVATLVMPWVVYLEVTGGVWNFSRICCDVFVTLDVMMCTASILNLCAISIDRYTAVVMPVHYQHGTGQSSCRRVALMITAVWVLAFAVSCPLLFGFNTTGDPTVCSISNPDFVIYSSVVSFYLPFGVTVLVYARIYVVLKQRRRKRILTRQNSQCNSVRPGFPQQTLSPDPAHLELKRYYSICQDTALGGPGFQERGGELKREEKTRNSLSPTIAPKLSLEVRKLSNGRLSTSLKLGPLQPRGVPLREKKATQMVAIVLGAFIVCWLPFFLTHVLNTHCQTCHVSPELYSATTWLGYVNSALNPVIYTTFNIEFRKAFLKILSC
Experimental: as §1, §2, §3, §4, §5, §6, §7

[3] = molecular target: T3, human dopamine D2 receptor (Homo sapiens, UniProt P14416); assay: Radioligand binding ([3H]-spiperone) to membranes of HEK-293 EBNA cells expressing human D2 receptor; settings: human D2, 0.7 nM [3H]-spiperone, HEK-293 EBNA membranes, 1 h at RT
T3 construct: expressed in transfected cells; host or cells: HEK-293 EBNA cells, transient transfection; membrane preparation
T3 sequence (P14416 whole entry): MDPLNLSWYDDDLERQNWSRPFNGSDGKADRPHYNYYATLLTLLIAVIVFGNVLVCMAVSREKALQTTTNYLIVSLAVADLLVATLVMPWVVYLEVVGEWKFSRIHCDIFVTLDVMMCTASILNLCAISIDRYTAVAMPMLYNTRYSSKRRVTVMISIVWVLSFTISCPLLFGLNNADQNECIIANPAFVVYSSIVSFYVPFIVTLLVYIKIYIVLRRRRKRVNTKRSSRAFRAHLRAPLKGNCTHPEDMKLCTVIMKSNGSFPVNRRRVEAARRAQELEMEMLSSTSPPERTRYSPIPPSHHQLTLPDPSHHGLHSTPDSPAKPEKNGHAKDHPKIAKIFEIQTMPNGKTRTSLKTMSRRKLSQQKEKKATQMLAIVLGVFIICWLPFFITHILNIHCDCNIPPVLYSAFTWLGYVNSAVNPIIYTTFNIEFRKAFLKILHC
Experimental: as §1, §2, §3, §4, §5, §6, §7

Compound	Ki [1] [nM]	Ki [2] [nM]	Ki [3] [nM]
COC(C)CC(=O)N[C@H]1CC[C@H](CCN2CCN(c3noc4cc(Cl)ccc34)CC2)CC1 (stereo partly drawn) [Example 37, N-trans-(4-{2-[4-(6-Chloro-benzo[d]isoxazol-3-yl)-piperazin-1-yl]-ethyl}-cyclohexyl)-3-methoxy-butyramide]	7.32	14.9	350
COC1(C)CCC(CC(=O)N[C@H]2CC[C@H](CCN3CCN(c4noc5cc(Cl)ccc45)CC3)CC2)CC1 (stereo partly drawn) [Example 39, N-trans-(4-{2-[4-(6-Chloro-benzo[d]isoxazol-3-yl)-piperazin-1-yl]-ethyl}-cyclohexyl)-2-(4-methoxy-4-methyl-cyclohexyl)-acetamide]	4.14	23.4	3800
CCC(=O)N[C@H]1CC[C@H](CCN2CCN(c3noc4cc(Cl)ccc34)CC2)CC1 [Example 41, N-trans-(4-{2-[4-(6-Chloro-benzo[d]isoxazol-3-yl)-piperazin-1-yl]-ethyl}-cyclohexyl)-propionamide]	10.9	8.7	675
O=C(CO)N[C@H]1CC[C@H](CCN2CCN(c3noc4cc(Cl)ccc34)CC2)CC1 [Example 42, N-trans-(4-{2-[4-(6-Chloro-benzo[d]isoxazol-3-yl)-piperazin-1-yl]-ethyl}-cyclohexyl)-2-hydroxy-acetamide]	6.99	11	809
O=C(C[C@H]1CC[C@H](O)CC1)N[C@H]1CC[C@H](CCN2CCN(c3noc4cc(Cl)ccc34)CC2)CC1 [Example 43, N-trans-(4-{2-[4-(6-Chloro-benzo[d]isoxazol-3-yl)-piperazin-1-yl]-ethyl}-cyclohexyl)-2-trans-(4-hydroxy-cyclohexyl)-acetamide]	3.22	12.5	2920
C[C@H](O)CC(=O)N[C@H]1CC[C@H](CCN2CCN(c3noc4cc(Cl)ccc34)CC2)CC1 [Example 45, (S)-N-(4-{2-[4-(6-Chloro-benzo[d]isoxazol-3-yl)-piperazin-1-yl]-ethyl}-cyclohexyl)-3-hydroxy-butyramide]	9.21	15.8	356
O=C(N[C@H]1CC[C@H](CCN2CCN(c3noc4cc(Cl)ccc34)CC2)CC1)[C@H]1CCOC1 [Example 46, (S)-Tetrahydro-furan-3-carboxylic acid (4-{2-[4-(6-chloro-benzo[d]isoxazol-3-yl)-piperazin-1-yl]-ethyl}-cyclohexyl)-amide]	10.9	20.9	488
O=C(CC1CC1)N[C@H]1CC[C@H](CCN2CCN(c3noc4cc(Cl)ccc34)CC2)CC1 [Example 52, N-trans-(4-{2-[4-(6-Chloro-benzo[d]isoxazol-3-yl)-piperazin-1-yl]-ethyl}-cyclohexyl)-2-cyclopropyl-acetamide]	5.07	3.84	315
O=C(CC(F)(F)F)N[C@H]1CC[C@H](CCN2CCN(c3noc4cc(Cl)ccc34)CC2)CC1 [Example 53, N-trans-(4-{2-[4-(6-Chloro-benzo[d]isoxazol-3-yl)-piperazin-1-yl]-ethyl}-cyclohexyl)-3,3,3-trifluoro-propionamide]	5.14	2.74	172
CO[C@H]1CC[C@H](C(=O)N[C@H]2CC[C@H](CCN3CCN(c4noc5cc(Cl)ccc45)CC3)CC2)CC1 [Example 54, 4-trans-Methoxy-cyclohexanecarboxylic acid N-trans-(4-{2-[4-(6-chloro-benzo[d]isoxazol-3-yl)-piperazin-1-yl]-ethyl}-cyclohexyl)-amide]	8.3	50.2	3850

The remaining lines, values ahead:

Ki [1] [nM]	Ki [2] [nM]	Ki [3] [nM]	Compound
4.8	17.2	899	O=C(CC1CCCCO1)N[C@H]1CC[C@H](CCN2CCN(c3noc4cc(Cl)ccc34)CC2)CC1 (stereo partly drawn) [Example 35, N-trans-(4-{2-[4-(6-Chloro-benzo[d]isoxazol-3-yl)-piperazin-1-yl]-ethyl}-cyclohexyl)-2-(tetrahydro-pyran-2-yl)-acetamide]
8.19	12.5	314	O=C(N[C@H]1CC[C@H](CCN2CCN(c3noc4cc(Cl)ccc34)CC2)CC1)C1(O)CC1 [Example 38, 1-Hydroxy-cyclopropanecarboxylic acid N-trans-(4-{2-[4-(6-chloro-benzo[d]isoxazol-3-yl)-piperazin-1-yl]-ethyl}-cyclohexyl)-amide]
11.3	7.02	1080	O=C(CC1CCOCC1)N[C@H]1CC[C@H](CCN2CCN(c3noc4cc(Cl)ccc34)CC2)CC1 [Example 40, N-trans-(4-{2-[4-(6-Chloro-benzo[d]isoxazol-3-yl)-piperazin-1-yl]-ethyl}-cyclohexyl)-2-(tetrahydro-pyran-4-yl)-acetamide]
6.59	10.1	325	CC(C)(O)CC(=O)N[C@H]1CC[C@H](CCN2CCN(c3noc4cc(Cl)ccc34)CC2)CC1 [Example 44, N-trans-(4-{2-[4-(6-Chloro-benzo[d]isoxazol-3-yl)-piperazin-l-yl]-ethyl}-cyclohexyl)-3-hydroxy-3-methyl-butyramide]
6.59	8.14	238	O=C(CC1COC1)N[C@H]1CC[C@H](CCN2CCN(c3noc4cc(Cl)ccc34)CC2)CC1 [Example 47, N-trans-(4-{2-[4-(6-Chloro-benzo[d]isoxazol-3-yl)-piperazin-1-yl]-ethyl}-cyclohexyl)-2-oxetan-3-yl-acetamide]
3.77	9.96	706	COC[C@H]1C[C@H](CC(=O)N[C@H]2CC[C@H](CCN3CCN(c4noc5cc(Cl)ccc45)CC3)CC2)C1 [Example 48, N-trans-(4-{2-[4-(6-Chloro-benzo[d]isoxazol-3-yl)-piperazin-1-yl]-ethyl}-cyclohexyl)-2-trans-(3-methoxymethyl-cyclobutyl)-acetamide]
8.48	20.6	1020	O=C(C[C@H]1CCCCO1)N[C@H]1CC[C@H](CCN2CCN(c3noc4cc(Cl)ccc34)CC2)CC1 [Example 49, N-trans-(4-{2-[4-(6-Chloro-benzo[d]isoxazol-3-yl)-piperazin-1-yl]-ethyl}-cyclohexyl)-2-(R)-tetrahydro-pyran-2-yl-acetamide]
4.78	23.7	1160	O=C(C[C@@H]1CCCCO1)N[C@H]1CC[C@H](CCN2CCN(c3noc4cc(Cl)ccc34)CC2)CC1 [Example 50, N-trans-(4-{2-[4-(6-Chloro-benzo[d]isoxazol-3-yl)-piperazin-1-yl]-ethyl}-cyclohexyl)-2-(S)-tetrahydro-pyran-2-yl-acetamide]
7.6	6.16	396	COC(CC(=O)N[C@H]1CC[C@H](CCN2CCN(c3noc4cc(Cl)ccc34)CC2)CC1)OC [Example 55, N-trans-(4-{2-[4-(6-Chloro-benzo[d]isoxazol-3-yl)-piperazin-1-yl]-ethyl}-cyclohexyl)-3,3-dimethoxy-propionamide]
